Reference: US20120264735A1 (priority 2009, published 2012)

Molecular target: T1, c-Met kinase (recombinant c-Met) (Homo sapiens, UniProt P08581)
T1 construct: 0.27 nM recombinant c-Met
Assay: In vitro kinase assay I (homogeneous time-resolved fluorescence tyrosine kinase assay)
Type: biochemical
Procedure, shortened: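 Biotinylated peptide (0.5 μM) phosphorylated by 0.2 nM recombinant c-Met with 50 μM MgATP, 60 min at room temperature, pH 7.4, 5% DMSO. EDTA stop; HTRF read with Eu-anti-phosphotyrosine antibody and streptavidin-APC. IC50 from 4-parameter logistic fit.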

T1 sequence (P08581 25-1390): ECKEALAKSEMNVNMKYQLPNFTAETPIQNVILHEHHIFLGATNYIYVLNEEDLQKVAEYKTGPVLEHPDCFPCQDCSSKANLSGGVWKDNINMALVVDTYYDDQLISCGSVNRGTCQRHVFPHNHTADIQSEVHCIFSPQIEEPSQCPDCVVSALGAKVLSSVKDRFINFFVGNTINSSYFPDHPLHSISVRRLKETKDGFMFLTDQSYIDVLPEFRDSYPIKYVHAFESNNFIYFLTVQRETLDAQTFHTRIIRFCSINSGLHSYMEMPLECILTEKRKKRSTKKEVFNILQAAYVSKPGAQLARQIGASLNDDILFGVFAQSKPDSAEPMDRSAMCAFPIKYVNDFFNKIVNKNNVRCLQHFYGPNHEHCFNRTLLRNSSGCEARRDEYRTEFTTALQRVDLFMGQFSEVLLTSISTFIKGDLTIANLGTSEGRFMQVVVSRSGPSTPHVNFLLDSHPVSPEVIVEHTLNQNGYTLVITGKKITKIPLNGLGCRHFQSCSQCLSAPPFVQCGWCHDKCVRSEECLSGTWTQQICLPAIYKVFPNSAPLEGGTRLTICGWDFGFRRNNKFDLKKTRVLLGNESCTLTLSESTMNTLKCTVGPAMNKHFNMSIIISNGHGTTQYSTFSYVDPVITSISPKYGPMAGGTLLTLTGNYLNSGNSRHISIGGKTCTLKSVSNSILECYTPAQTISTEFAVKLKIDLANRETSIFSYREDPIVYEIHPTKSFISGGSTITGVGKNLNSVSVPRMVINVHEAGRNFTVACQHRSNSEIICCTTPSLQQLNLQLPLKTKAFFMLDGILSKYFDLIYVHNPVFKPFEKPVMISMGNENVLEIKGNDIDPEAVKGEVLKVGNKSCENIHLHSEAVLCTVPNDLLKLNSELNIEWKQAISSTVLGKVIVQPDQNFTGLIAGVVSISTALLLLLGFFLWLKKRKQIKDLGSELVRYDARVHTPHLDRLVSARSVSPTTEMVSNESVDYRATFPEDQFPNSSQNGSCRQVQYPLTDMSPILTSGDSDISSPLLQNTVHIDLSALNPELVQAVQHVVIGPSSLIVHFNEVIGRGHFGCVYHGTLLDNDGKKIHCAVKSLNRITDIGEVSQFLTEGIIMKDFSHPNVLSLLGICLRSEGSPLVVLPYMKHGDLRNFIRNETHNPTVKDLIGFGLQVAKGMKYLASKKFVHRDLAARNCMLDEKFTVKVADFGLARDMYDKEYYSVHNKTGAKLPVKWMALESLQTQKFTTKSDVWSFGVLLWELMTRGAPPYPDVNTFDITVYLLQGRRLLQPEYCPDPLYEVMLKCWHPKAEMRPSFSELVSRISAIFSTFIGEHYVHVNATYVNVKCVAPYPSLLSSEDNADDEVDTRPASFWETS

Structure (SMILES)	IC50 [µM]
CCCOC(=O)Nc1cccc(Cc2nn(-c3cnn(CCOC)c3)ccc2=O)c1 [Example 107, propyl [3-({1-[1-(2-methoxyethyl)-1H-pyrazol-4-yl]-4-oxo-1,4-dihydropyridazin-3-yl}methyl)phenyl]carbamate]	0.1 to 1
COCCn1cc(-n2ccc(=O)c(Cc3cccc(NC(=O)OCC(C)C)c3)n2)cn1 [Example 108, 2-methylpropyl [3-({1-[1-(2-methoxyethyl)-1H-pyrazol-4-yl]-4-oxo-1,4-dihydropyridazin-3-yl}methyl)phenyl]carbamate]	< 0.1
CCOC(=O)Nc1cccc(Cc2nn(-c3cnn(CC)c3)ccc2=O)c1 [Example 109, ethyl (3-{[1-(1-ethyl-1H-pyrazol-4-yl)-4-oxo-1,4-dihydropyridazin-3-yl]methyl}phenyl)carbamate]	< 0.1
CCn1cc(-n2ccc(=O)c(Cc3cccc(NC(=O)OCC(C)C)c3)n2)cn1 [Example 110, 2-methylpropyl (3-{[1-(1-ethyl-1H-pyrazol-4-yl)-4-oxo-1,4-dihydropyridazin-3-yl]methyl}phenyl)carbamate]	< 0.1
CCOC(=O)Nc1cccc(Cc2nn(-c3cnn(CC(F)(F)F)c3)ccc2=O)c1 [Example 111, ethyl [3-({4-oxo-1-[1-(2,2,2-trifluoroethyl)-1H-pyrazol-4-yl]-1,4-dihydropyridazin-3-yl}methyl)phenyl]carbamate]	< 0.1
CCCn1cc(-n2ccc(=O)c(Cc3cccc(NC(=O)OCC)c3)n2)cn1 [Example 112, ethyl (3-{[4-oxo-1-(1-propyl-1H-pyrazol-4-yl)-1,4-dihydropyridazin-3-yl]methyl}phenyl)carbamate]	< 0.1
CCCn1cc(-n2ccc(=O)c(Cc3cccc(NC(=O)OCC(C)C)c3)n2)cn1 [Example 113, 2-methylpropyl (3-{[4-oxo-1-(1-propyl-1H-pyrazol-4-yl)-1,4-dihydropyridazin-3-yl]methyl}phenyl)carbamate]	< 0.1
CCCn1cc(-n2ccc(=O)c(Cc3cccc(-c4ncc(OC)cn4)c3)n2)cn1 [Example 114, 3-[3-(5-methoxypyrimidin-2-yl)benzyl]-1-(1-propyl-1H-pyrazol-4-yl)pyridazin-4(1H)-one]	< 0.1
CCn1cc(-n2ccc(=O)c(Cc3cccc(NC(=O)OCCN4CCOCC4)c3)n2)cn1 [Example 115, 2-morpholin-4-ylethyl (3-{[1-(1-ethyl-1H-pyrazol-4-yl)-4-oxo-1,4-dihydropyridazin-3-yl]methyl}phenyl)carbamate]	< 0.1
O=C(Nc1cccc(Cc2nn(-c3cnn(CC(F)(F)F)c3)ccc2=O)c1)OCCN1CCOCC1 [Example 116, 2-morpholin-4-ylethyl [3-({4-oxo-1-[1-(2,2,2-trifluoroethyl)-1H-pyrazol-4-yl]-1,4-dihydropyridazin-3-yl}methyl)phenyl]carbamate]	< 0.1
CCCn1cc(-n2ccc(=O)c(Cc3cccc(NC(=O)OCCN4CCOCC4)c3)n2)cn1 [Example 117, 2-morpholin-4-ylethyl (3-{[4-oxo-1-(1-propyl-1H-pyrazol-4-yl)-1,4-dihydropyridazin-3-yl]methyl}phenyl)carbamate]	< 0.1
CCOc1cnc(-c2ccc(F)c(Cc3nn(-c4cnn(C)c4)ccc3=O)c2)nc1 [Example 118, 3-[5-(5-ethoxypyrimidin-2-yl)-2-fluorobenzyl]-1-(1-methyl-1H-pyrazol-4-yl)pyridazin-4(1H)-one]	< 0.1
CCOc1cnc(-c2cc(Cc3nn(-c4cnn(C)c4)ccc3=O)ccc2F)nc1 [Example 119, 3-[3-(5-ethoxypyrimidin-2-yl)-4-fluorobenzyl]-1-(1-methyl-1H-pyrazol-4-yl)pyridazin-4(1H)-one]	0.1 to 1
CCOc1cnc(-c2cc(F)cc(Cc3nn(-c4cnn(C)c4)ccc3=O)c2)nc1 [Example 120, 3-[3-(5-ethoxypyrimidin-2-yl)-5-fluorobenzyl]-1-(1-methyl-1H-pyrazol-4-yl)pyridazin-4(1H)-one]	< 0.1
CCOc1cnc(-c2cccc(Cc3nn(-c4cnn(C)c4)ccc3=O)c2F)nc1 [Example 121, 3-[3-(5-ethoxypyrimidin-2-yl)-2-fluorobenzyl]-1-(1-methyl-1H-pyrazol-4-yl)pyridazin-4(1H)-one]	0.1 to 1
Cn1cc(-n2ccc(=O)c(Cc3cccc(-c4ncc(O[C@H]5CC[C@](C)(O)CC5)cn4)c3)n2)cn1 [Example 122, 3-(3-{5-[(trans-4-hydroxy-4-methylcyclohexyl)oxy]pyrimidin-2-yl}benzyl)-1-(1-methyl-1H-pyrazol-4-yl)pyridazin-4(1H)-one]	< 0.1
Cn1cc(-n2ccc(=O)c(Cc3cccc(-c4ncc(OC5CCC6(CC5)OCCO6)cn4)c3)n2)cn1 [Example 123, 3-{3-[5-(1,4-dioxaspiro[4.5]dec-8-yloxy)pyrimidin-2-yl]benzyl}-1-(1-methyl-1H-pyrazol-4-yl)pyridazin-4(1H)-one]	< 0.1
O=c1ccn(-c2ccc(F)c(F)c2)nc1Cc1cccc(-c2ncc(OCc3ccccc3)cn2)c1 [Example 124, 3-{3-[5-(benzyloxy)pyrimidin-2-yl]benzyl}-1-(3,4-difluorophenyl)pyridazin-4(1H)-one]	< 0.1
O=c1ccn(-c2cc(F)cc(F)c2)nc1Cc1cccc(-c2ncc(OCc3ccccc3)cn2)c1 [Example 125, 3-{3-[5-(benzyloxy)pyrimidin-2-yl]benzyl}-1-(3,5-difluorophenyl)pyridazin-4(1H)-one]	< 0.1

Structure (SMILES)	IC50 [µM]
COc1cnc(-c2cccc(Cc3nn(-c4cc(Cl)cc(C#N)c4)ccc3=O)c2)nc1 [Example 126, 3-chloro-5-{3-[3-(5-methoxypyrimidin-2-yl)benzyl]-4-oxopyridazin-1(4H)-yl}benzonitrile]	< 0.1
COCCOC(=O)Nc1cccc(Cc2nn(-c3cc(Cl)cc(C#N)c3)ccc2=O)c1 [Example 127, 2-methoxyethyl (3-{[1-(3-chloro-5-cyanophenyl)-4-oxo-1,4-dihydropyridazin-3-yl]methyl}phenyl)carbamate]	< 0.1
COc1cnc(-c2cccc(Cc3nn(-c4cc(F)cc(C#N)c4)ccc3=O)c2)nc1 [Example 128, 3-fluoro-5-{3-[3-(5-methoxypyrimidin-2-yl)benzyl]-4-oxopyridazin-1(4H)-yl}benzonitrile]	< 0.1
COCCOC(=O)Nc1cccc(Cc2nn(-c3cncc(C#N)c3)ccc2=O)c1 [Example 129, 2-methoxyethyl (3-{[1-(5-cyanopyridin-3-yl)-4-oxo-1,4-dihydropyridazin-3-yl]methyl}phenyl)carbamate]	< 0.1
COCCOc1cnc(-c2cccc(Cc3nn(-c4cncc(C#N)c4)ccc3=O)c2)nc1 [Example 132, 5-[3-{3-[5-(2-methoxyethoxy)pyrimidin-2-yl]benzyl}-4-oxopyridazin-1(4H)-yl]pyridine-3-carbonitrile]	< 0.1
CCOc1cnc(-c2cccc(Cc3nn(-c4cc(F)cc(C#N)c4)ccc3=O)c2)nc1 [Example 133, 3-{3-[3-(5-ethoxypyrimidin-2-yl)benzyl]-4-oxopyridazin-1(4H)-yl}-5-fluorobenzonitrile]	< 0.1
COCCOc1cnc(-c2cccc(Cc3nn(-c4cc(F)cc(C#N)c4)ccc3=O)c2)nc1 [Example 134, 3-fluoro-5-[3-{3-[5-(2-methoxyethoxy)pyrimidin-2-yl]benzyl}-4-oxopyridazin-1(4H)-yl]benzonitrile]	< 0.1
CCOC(=O)Nc1cccc(Cc2nn(-c3cccc(C#N)c3)ccc2=O)c1 [Example 135, ethyl (3-{[1-(3-cyanophenyl)-4-oxo-1,4-dihydropyridazin-3-yl]methyl}phenyl)carbamate]	< 0.1
CCOc1cnc(-c2cccc(Cc3nn(-c4cncc(C#N)c4)ccc3=O)c2)nc1 [Example 136, 5-{3-[3-(5-ethoxypyrimidin-2-yl)benzyl]-4-oxopyridazin-1(4H)-yl}pyridine-3-carbonitrile]	< 0.1
CCOc1cnc(-c2cccc(Cc3nn(-c4ccc(C#N)cc4)ccc3=O)c2)nc1 [Example 137, 4-{3-[3-(5-ethoxypyrimidin-2-yl)benzyl]-4-oxopyridazin-1(4H)-yl}benzonitrile]	< 0.1
COCCOc1cnc(-c2cccc(Cc3nn(-c4ccc(C#N)cc4)ccc3=O)c2)nc1 [Example 138, 4-[3-{3-[5-(2-methoxyethoxy)pyrimidin-2-yl]benzyl}-4-oxopyridazin-1(4H)-yl]benzonitrile]	< 0.1
CCOc1cnc(-c2cccc(Cc3nn(-c4cc(Cl)cc(C#N)c4)ccc3=O)c2)nc1 [Example 140, 3-chloro-5-{3-[3-(5-ethoxypyrimidin-2-yl)benzyl]-4-oxopyridazin-1(4H)-yl}benzonitrile]	< 0.1
COc1ccnc2ccc(Cc3nn(-c4cnn(C)c4)ccc3=O)cc12 [Example 142, 3-[(4-methoxyquinolin-6-yl)methyl]-1-(1-methyl-1H-pyrazol-4-yl)pyridazin-4(1H)-one]	0.1 to 1
CCOc1cnc(-c2cccc(Cc3nn(-c4cccc(Br)c4)ccc3=O)c2)nc1 [Example 143, 1-(3-bromophenyl)-3-[3-(5-ethoxypyrimidin-2-yl)benzyl]pyridazin-4(1H)-one]	< 0.1
COCCOc1cnc(-c2cccc(Cc3nn(-c4ccc(C#N)c(F)c4)ccc3=O)c2)nc1 [Example 144, 2-fluoro-4-[3-{3-[5-(2-methoxyethoxy)pyrimidin-2-yl]benzyl}-4-oxopyridazin-1(4H)-yl]benzonitrile]	< 0.1
CCOc1cnc(-c2cccc(Cc3nn(-c4ccc(Br)c(F)c4)ccc3=O)c2)nc1 [Example 145, 1-(4-Bromo-3-fluorophenyl)-3-[3-(5-ethoxypyrimidin-2-yl)benzyl]pyridazin-4(1H)-one]	< 0.1
CCOc1cnc(-c2cccc(Cc3nn(-c4cc(F)cc(F)c4)ccc3=O)c2)nc1 [Example 146, 1-(3,5-difluorophenyl)-3-[3-(5-ethoxypyrimidin-2-yl)benzyl]pyridazin-4(1H)-one]	< 0.1
CCOc1cnc(-c2cccc(Cc3nn(-c4cc(F)c(Br)c(F)c4)ccc3=O)c2)nc1 [Example 147, 1-(4-bromo-3,5-difluorophenyl)-3-[3-(5-ethoxypyrimidin-2-yl)benzyl]pyridazin-4(1H)-one]	< 0.1
